Data reported in ChEMBL document CHEMBL1151840, “Synthetic oligoribonucleotides containing arabinonucleotides act as agonists of TLR7 and 8” (Bioorg Med Chem Lett, 2009).
Calls of active or inactive are those of the source. No cut-off for these calls is given here.

Legend:
PBMC [1] = experiment: Stimulation of immune response in human PBMC assessed as induction of IL1-beta production at 150 ug/ml after 24 hrs; type: functional, cell-based
[2] = Stability in human serum assessed as full-length compound remaining after 10 mins by anion-exchange HPLC; type: ADME, cell-free; conditions: read-out: Stability
PBMC [3] = experiment: Stimulation of immune response in human PBMC assessed as induction of MIP1alpha production at 150 ug/ml after 24 hrs; type: functional, cell-based
PBMC [4] = experiment: Stimulation of immune response in human PBMC assessed as induction of MIP1beta production at 150 ug/ml after 24 hrs; type: functional, cell-based
Homo sapiens [5] = species on record: Homo sapiens; experiment: Stimulation of immune response in human pDC assessed as induction of MIP1alpha production at 150 ug/ml after 24 hrs; type: functional
[6] = target: T1, Toll-like receptor 7 (Homo sapiens) (UniProt Q9NYK1); experiment: Agonist activity at human TLR7 expressed in HEK293XL cells assessed as NF-kappaB activation after 18 hrs; type: functional, cell-based
T1 sequence (whole entry): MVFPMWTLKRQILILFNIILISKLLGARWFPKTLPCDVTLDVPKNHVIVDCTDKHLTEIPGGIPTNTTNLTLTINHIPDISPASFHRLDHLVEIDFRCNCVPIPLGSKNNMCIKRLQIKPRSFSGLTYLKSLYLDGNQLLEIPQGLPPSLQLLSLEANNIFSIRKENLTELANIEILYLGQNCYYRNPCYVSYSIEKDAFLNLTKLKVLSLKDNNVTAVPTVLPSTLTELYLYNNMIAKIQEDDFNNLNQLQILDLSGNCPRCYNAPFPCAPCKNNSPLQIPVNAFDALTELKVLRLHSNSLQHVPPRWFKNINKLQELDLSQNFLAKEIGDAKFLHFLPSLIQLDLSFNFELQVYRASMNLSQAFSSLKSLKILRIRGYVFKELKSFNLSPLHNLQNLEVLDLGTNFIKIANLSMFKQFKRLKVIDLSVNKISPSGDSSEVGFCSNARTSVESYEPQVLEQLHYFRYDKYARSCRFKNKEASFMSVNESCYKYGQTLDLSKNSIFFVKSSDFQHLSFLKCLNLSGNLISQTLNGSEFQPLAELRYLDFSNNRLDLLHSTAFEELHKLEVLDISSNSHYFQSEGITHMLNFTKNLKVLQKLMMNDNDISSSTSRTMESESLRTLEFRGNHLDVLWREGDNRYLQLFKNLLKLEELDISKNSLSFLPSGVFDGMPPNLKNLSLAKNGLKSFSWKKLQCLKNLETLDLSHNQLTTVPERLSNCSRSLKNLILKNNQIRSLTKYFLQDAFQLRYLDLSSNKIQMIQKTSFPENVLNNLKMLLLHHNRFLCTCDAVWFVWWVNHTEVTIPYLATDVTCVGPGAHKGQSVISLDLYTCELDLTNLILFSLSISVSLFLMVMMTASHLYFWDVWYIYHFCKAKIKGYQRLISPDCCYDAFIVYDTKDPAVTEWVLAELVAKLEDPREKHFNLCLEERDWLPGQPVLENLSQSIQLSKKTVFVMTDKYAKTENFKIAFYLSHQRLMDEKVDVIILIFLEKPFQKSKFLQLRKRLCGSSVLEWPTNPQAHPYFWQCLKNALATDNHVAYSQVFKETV

Homo sapiens [7] = species on record: Homo sapiens; experiment: Stimulation of immune response in human pDC assessed as induction of TNFalpha production at 150 ug/ml after 24 hrs; type: functional
PBMC [8] = experiment: Stimulation of immune response in human PBMC assessed as induction of IL2R level at 150 ug/ml after 24 hrs; type: functional, cell-based
PBMC [9] = experiment: Stimulation of immune response in human PBMC assessed as induction of IL12 production at 150 ug/ml after 24 hrs; type: functional, cell-based
Mus musculus = experiment: Stimulation of immune response in C57BL/6 mouse assessed as induction of serum IL12 production at 50 mg/kg, sc after 2 hrs by luminex multiplex assay; type: functional, organism-based; design: dose 50 mg/kg
PBMC [10] = experiment: Stimulation of immune response in human PBMC assessed as induction of TNFalpha production at 150 ug/ml after 24 hrs; type: functional, cell-based
PBMC [11] = experiment: Stimulation of immune response in human PBMC assessed as induction of RANTES production at 150 ug/ml after 24 hrs; type: functional, cell-based
Homo sapiens [12] = species on record: Homo sapiens; experiment: Stimulation of immune response in human pDC assessed as induction of IFNalpha production at 150 ug/ml after 24 hrs; type: functional
PBMC [13] = experiment: Stimulation of immune response in human PBMC assessed as induction of MCP1 production at 150 ug/ml after 24 hrs; type: functional, cell-based
PBMC [14] = experiment: Stimulation of immune response in human PBMC assessed as induction of IL8 production at 150 ug/ml after 24 hrs; type: functional, cell-based
Homo sapiens [15] = species on record: Homo sapiens; experiment: Stimulation of immune response in human pDC assessed as induction of MIP1beta production at 150 ug/ml after 24 hrs; type: functional
[16] = target: T2, Toll-like receptor 8 (Homo sapiens) (UniProt Q9NR97); experiment: Agonist activity at human TLR8 expressed in HEK293XL cells assessed as NF-kappaB activation after 18 hrs; type: functional, cell-based
T2 sequence (whole entry): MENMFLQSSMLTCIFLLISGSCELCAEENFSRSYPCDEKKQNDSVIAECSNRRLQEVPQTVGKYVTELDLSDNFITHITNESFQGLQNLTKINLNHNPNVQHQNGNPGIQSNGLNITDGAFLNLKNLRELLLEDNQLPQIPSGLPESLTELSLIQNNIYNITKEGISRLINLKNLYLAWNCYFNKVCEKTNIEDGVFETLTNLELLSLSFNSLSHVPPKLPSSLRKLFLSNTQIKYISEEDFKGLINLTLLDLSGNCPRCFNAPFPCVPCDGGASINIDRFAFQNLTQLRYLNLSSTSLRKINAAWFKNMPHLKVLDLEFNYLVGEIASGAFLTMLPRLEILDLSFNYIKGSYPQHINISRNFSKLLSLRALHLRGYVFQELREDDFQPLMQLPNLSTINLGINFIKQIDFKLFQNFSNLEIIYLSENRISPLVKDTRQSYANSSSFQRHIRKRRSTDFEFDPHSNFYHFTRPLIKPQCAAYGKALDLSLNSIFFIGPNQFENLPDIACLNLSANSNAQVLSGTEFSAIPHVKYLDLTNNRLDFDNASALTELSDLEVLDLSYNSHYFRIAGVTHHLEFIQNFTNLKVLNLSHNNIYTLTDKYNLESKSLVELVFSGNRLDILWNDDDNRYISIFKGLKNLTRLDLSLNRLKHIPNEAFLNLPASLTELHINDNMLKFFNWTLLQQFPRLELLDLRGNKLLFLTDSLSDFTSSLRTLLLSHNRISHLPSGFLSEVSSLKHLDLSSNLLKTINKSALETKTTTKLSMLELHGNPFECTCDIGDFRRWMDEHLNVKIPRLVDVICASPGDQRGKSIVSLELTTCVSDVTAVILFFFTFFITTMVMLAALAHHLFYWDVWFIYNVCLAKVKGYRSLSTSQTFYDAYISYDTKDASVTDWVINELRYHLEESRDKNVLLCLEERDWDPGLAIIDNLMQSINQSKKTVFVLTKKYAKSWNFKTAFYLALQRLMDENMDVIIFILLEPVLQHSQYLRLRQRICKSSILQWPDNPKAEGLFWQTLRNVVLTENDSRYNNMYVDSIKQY

PBMC [17] = experiment: Stimulation of immune response in human PBMC assessed as induction of IL10 production at 150 ug/ml after 24 hrs; type: functional, cell-based
PBMC [18] = experiment: Stimulation of immune response in human PBMC assessed as induction of IFNalpha production at 150 ug/ml after 24 hrs; type: functional, cell-based
Homo sapiens [19] = species on record: Homo sapiens; experiment: Stimulation of immune response in human pDC assessed as induction of IFN-gamma production at 150 ug/ml after 24 hrs; type: functional
Homo sapiens [20] = species on record: Homo sapiens; experiment: Stimulation of immune response in human pDC assessed as induction of IL12 production at 150 ug/ml after 24 hrs; type: functional
PBMC [21] = experiment: Stimulation of immune response in human PBMC assessed as induction of IFN-gamma production at 150 ug/ml after 24 hrs; type: functional, cell-based

Nc1ncnc2c1ncn2[C@@H]1O[C@H](CO)[C@@H](OP(=O)(S)OC[C@H]2O[C@@H](n3cnc4c(N)ncnc43)[C@H](O)[C@@H]2OP(=O)(S)OC[C@H]2O[C@@H](n3cnc4c(N)ncnc43)[C@H](O)[C@@H]2OP(=O)(S)OC[C@H]2O[C@@H](n3cnc4c(N)ncnc43)[C@H](O)[C@@H]2OP(=O)(S)OC[C@H]2O[C@@H](n3cnc4c(N)ncnc43)[C@H](O)[C@@H]2OP(=O)(S)OC[C@H]2O[C@@H](n3cnc4c(N)ncnc43)[C@H](O)[C@@H]2OP(=O)(S)OC[C@H]2O[C@@H](n3cnc4c(N)ncnc43)[C@H](O)[C@@H]2OP(=O)(S)OC[C@H]2O[C@@H](n3cnc4c(N)ncnc43)[C@H](O)[C@@H]2OP(=O)(S)OC[C@H]2O[C@@H](n3cnc4c(N)ncnc43)[C@H](O)[C@@H]2OP(=O)(S)OC[C@H]2O[C@@H](n3cnc4c(N)ncnc43)[C@H](O)[C@@H]2OP(=O)(S)OC[C@H]2O[C@@H](n3cnc4c(N)ncnc43)[C@H](O)[C@@H]2OP(=O)(S)OCC(O)COP(=O)(S)O[C@H]2[C@@H](O)[C@H](n3cnc4c(N)ncnc43)O[C@@H]2COP(=O)(S)O[C@H]2[C@@H](O)[C@H](n3cnc4c(N)ncnc43)O[C@@H]2COP(=O)(S)O[C@H]2[C@@H](O)[C@H](n3cnc4c(N)ncnc43)O[C@@H]2COP(=O)(S)O[C@H]2[C@@H](O)[C@H](n3cnc4c(N)ncnc43)O[C@@H]2COP(=O)(S)O[C@H]2[C@@H](O)[C@H](n3cnc4c(N)ncnc43)O[C@@H]2COP(=O)(S)O[C@H]2[C@@H](O)[C@H](n3cnc4c(N)ncnc43)O[C@@H]2COP(=O)(S)O[C@H]2[C@@H](O)[C@H](n3cnc4c(N)ncnc43)O[C@@H]2COP(=O)(S)O[C@H]2[C@@H](O)[C@H](n3cnc4c(N)ncnc43)O[C@@H]2COP(=O)(S)O[C@H]2[C@@H](O)[C@H](n3cnc4c(N)ncnc43)O[C@@H]2COP(=O)(S)O[C@H]2[C@@H](O)[C@H](n3cnc4c(N)ncnc43)O[C@@H]2COP(=O)(S)O[C@H]2[C@@H](O)[C@H](n3cnc4c(N)ncnc43)O[C@@H]2CO)[C@H]1O (some centres undefined)
Activity (PBMC [1]): inactive
remaining at 10 min [2]: 90%
Activity (PBMC [3]): inactive
Activity (PBMC [4]): inactive
Activity (Homo sapiens [5]): inactive
Activity [6]: inactive
Activity (Homo sapiens [7]): inactive
Activity (PBMC [8]): inactive
Activity (PBMC [9]): inactive
Activity (Mus musculus): inactive
Activity (PBMC [10]): inactive
Activity (PBMC [11]): inactive
Activity (Homo sapiens [12]): inactive
Activity (PBMC [13]): inactive
Activity (PBMC [14]): inactive
Activity (Homo sapiens [15]): inactive
Activity [16]: inactive
Activity (PBMC [17]): inactive
Activity (PBMC [18]): inactive
Activity (Homo sapiens [19]): inactive
Activity (Homo sapiens [20]): inactive
Activity (PBMC [21]): inactive

Nc1ccn([C@@H]2O[C@H](COP(O)(=S)O[C@H]3[C@@H](O)[C@H](n4cnc5c(=O)[nH]c(N)nc54)O[C@@H]3COP(O)(=S)O[C@H]3[C@@H](O)[C@H](n4ccc(=O)[nH]c4=O)O[C@@H]3CO)[C@@H](OP(O)(=S)OC[C@H]3O[C@@H](n4ccc(=O)[nH]c4=O)[C@H](O)[C@@H]3OP(O)(=S)OC[C@H]3O[C@@H](n4cnc5c(=O)[nH]c(N)nc54)[C@H](O)[C@@H]3OP(O)(=S)OC[C@H]3O[C@@H](n4ccc(N)nc4=O)[C@H](O)[C@@H]3OP(O)(=S)OC[C@H]3O[C@@H](n4ccc(=O)[nH]c4=O)[C@H](O)[C@@H]3OP(O)(=S)OC[C@H]3O[C@@H](n4ccc(=O)[nH]c4=O)[C@H](O)[C@@H]3OP(O)(=S)OC[C@H]3O[C@@H](n4cnc5c(=O)[nH]c(N)nc54)[C@H](O)[C@@H]3OP(O)(=S)OC[C@H]3O[C@@H](n4ccc(=O)[nH]c4=O)[C@H](O)[C@@H]3OP(O)(=S)OC[C@H]3O[C@@H](n4cnc5c(=O)[nH]c(N)nc54)[C@H](O)[C@@H]3OP(O)(=S)OCC(O)COP(O)(=S)O[C@H]3[C@@H](O)[C@H](n4cnc5c(=O)[nH]c(N)nc54)O[C@@H]3COP(O)(=S)O[C@H]3[C@@H](O)[C@H](n4ccc(=O)[nH]c4=O)O[C@@H]3COP(O)(=S)O[C@H]3[C@@H](O)[C@H](n4cnc5c(=O)[nH]c(N)nc54)O[C@@H]3COP(O)(=S)O[C@H]3[C@@H](O)[C@H](n4ccc(=O)[nH]c4=O)O[C@@H]3COP(O)(=S)O[C@H]3[C@@H](O)[C@H](n4ccc(=O)[nH]c4=O)O[C@@H]3COP(O)(=S)O[C@H]3[C@@H](O)[C@H](n4ccc(N)nc4=O)O[C@@H]3COP(O)(=S)O[C@H]3[C@@H](O)[C@H](n4cnc5c(=O)[nH]c(N)nc54)O[C@@H]3COP(O)(=S)O[C@H]3[C@@H](O)[C@H](n4ccc(=O)[nH]c4=O)O[C@@H]3COP(O)(=S)O[C@H]3[C@@H](O)[C@H](n4ccc(N)nc4=O)O[C@@H]3COP(O)(=S)O[C@H]3[C@@H](O)[C@H](n4cnc5c(=O)[nH]c(N)nc54)O[C@@H]3COP(O)(=S)O[C@H]3[C@@H](O)[C@H](n4ccc(=O)[nH]c4=O)O[C@@H]3CO)[C@H]2O)c(=O)n1 (some centres undefined)
Activity (PBMC [1]): Active
remaining at 10 min [2]: 75%
Activity (PBMC [3]): Active
Activity (PBMC [4]): Active
Activity (Homo sapiens [5]): Active
Activity [6]: inactive
Activity (Homo sapiens [7]): Active
Activity (PBMC [8]): Active
Activity (PBMC [9]): Active
Activity (Mus musculus): inactive
Activity (PBMC [10]): Active
Activity (PBMC [11]): Active
Activity (Homo sapiens [12]): inactive
Activity (PBMC [13]): Active
Activity (PBMC [14]): Active
Activity (Homo sapiens [15]): Active
Activity [16]: Dose-dependent effect
Activity (PBMC [17]): Active
Activity (PBMC [18]): Active
Activity (Homo sapiens [19]): Active
Activity (Homo sapiens [20]): Active
Activity (PBMC [21]): Active
